Results from patent EP4592290A1, “CARBONYL FUSED HETEROCYCLIC DERIVATIVE USED AS UBIQUITIN-SPECIFIC PROTEASE INHIBITOR” (Chia Tai Tianqing Pharmaceutical Group Co., Ltd., priority 2022, dated 2024).

How the values were obtained:
MDA-MB-436 cells = experiment: Assay on inhibitory activity for MDA-MB-436 cell proliferation (CCK-8); type: cell-based; details: Homo sapiens, 168 h, 7 days of incubation, CCK-8, absorbance at 450 nm
Procedure: MDA-MB-436 cells in a good growth state were collected into a centrifuge tube, adjusted to a cell density of 10^4 cells/mL, and seeded in a 96-well plate (100 µL/well), and the plate was incubated overnight in a cell incubator. Compounds were added using a nanoliter pipettor, such that the final concentrations of the compounds were 1000 nM-0.457 nM. The wells were set in duplicate, and a control well was set. After another 7 days of incubation in the cell incubator, the detection reagent CCK-8 (manufacturer: Dojindo Laboratories; 10 µL/well) was added. After 2 h of incubation in the cell incubator, absorbance values were detected at 450 nm using an Envision microplate reader, the four-parameter analysis was performed, the dose-response curves were fit, and IC50 was calculated. The experimental results are shown in Table 1, where A represents 0 nM < IC50 ≤ 50 nM; B represents 50 nM < IC50 ≤ 100 nM; C represents 100 nM < IC50 ≤ 1000 nM; and D represents 1000 nM < IC50. Table 1. Inhibitory activity for MDA-MB-436 cell proliferation

USP1/UAF1 = USP1/UAF1 (Homo sapiens, UniProt O94782); experiment: Assay on USP1/UAF1 enzymatic inhibitory activity (Ub-Rhodamine); type: biochemical; details: USP1/UAF1 protein 10 nM, Ub-Rhodamine 300 nM, 30 min pre-incubation, 90 min reaction
Procedure: A USP1/UAF1 protein solution (with a concentration of 10 nM) was added to assay wells at 10 µL/well, and different compounds dissolved in DMSO were separately added to the assay wells using a nanoliter pipettor, such that the final concentrations of the compounds were 1000 nM-0.24 nM. The wells were set in duplicate, and a control well was set. After incubation of the system described above at room temperature for 30 min, Ub-Rhodamine (with a concentration of 300 nM) was added to the assay wells at 10 µL/well. The mixtures were reacted at room temperature for 90 min, and then the plate was read using a PerkinElmer Envision multifunctional microplate reader (Ex. 490 nm/Em. 520 nm). IC50 was calculated by four-parameter fitting.

USP1/UAF1, sequence (O94782 whole entry): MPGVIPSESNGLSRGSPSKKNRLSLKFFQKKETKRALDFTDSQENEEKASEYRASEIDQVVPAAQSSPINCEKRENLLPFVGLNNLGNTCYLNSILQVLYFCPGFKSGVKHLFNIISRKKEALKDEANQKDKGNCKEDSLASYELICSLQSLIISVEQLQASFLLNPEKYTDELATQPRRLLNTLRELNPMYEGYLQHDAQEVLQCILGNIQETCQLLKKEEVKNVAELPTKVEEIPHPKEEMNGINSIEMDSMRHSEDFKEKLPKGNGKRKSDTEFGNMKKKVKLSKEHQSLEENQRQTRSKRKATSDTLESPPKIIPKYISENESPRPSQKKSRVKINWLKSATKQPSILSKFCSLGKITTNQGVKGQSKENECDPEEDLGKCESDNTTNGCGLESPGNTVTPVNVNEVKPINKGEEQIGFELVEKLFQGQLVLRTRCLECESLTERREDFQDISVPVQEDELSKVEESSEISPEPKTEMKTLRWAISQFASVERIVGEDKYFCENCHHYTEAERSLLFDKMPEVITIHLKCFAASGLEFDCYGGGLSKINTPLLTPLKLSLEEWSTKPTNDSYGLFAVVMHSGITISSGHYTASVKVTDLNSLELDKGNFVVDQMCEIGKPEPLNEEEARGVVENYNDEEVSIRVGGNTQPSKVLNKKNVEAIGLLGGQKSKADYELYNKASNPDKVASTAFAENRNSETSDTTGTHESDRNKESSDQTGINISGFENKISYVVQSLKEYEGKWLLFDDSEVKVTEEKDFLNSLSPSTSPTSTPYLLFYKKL
USP1/UAF1, sequence (Q8TAF3 whole entry partner): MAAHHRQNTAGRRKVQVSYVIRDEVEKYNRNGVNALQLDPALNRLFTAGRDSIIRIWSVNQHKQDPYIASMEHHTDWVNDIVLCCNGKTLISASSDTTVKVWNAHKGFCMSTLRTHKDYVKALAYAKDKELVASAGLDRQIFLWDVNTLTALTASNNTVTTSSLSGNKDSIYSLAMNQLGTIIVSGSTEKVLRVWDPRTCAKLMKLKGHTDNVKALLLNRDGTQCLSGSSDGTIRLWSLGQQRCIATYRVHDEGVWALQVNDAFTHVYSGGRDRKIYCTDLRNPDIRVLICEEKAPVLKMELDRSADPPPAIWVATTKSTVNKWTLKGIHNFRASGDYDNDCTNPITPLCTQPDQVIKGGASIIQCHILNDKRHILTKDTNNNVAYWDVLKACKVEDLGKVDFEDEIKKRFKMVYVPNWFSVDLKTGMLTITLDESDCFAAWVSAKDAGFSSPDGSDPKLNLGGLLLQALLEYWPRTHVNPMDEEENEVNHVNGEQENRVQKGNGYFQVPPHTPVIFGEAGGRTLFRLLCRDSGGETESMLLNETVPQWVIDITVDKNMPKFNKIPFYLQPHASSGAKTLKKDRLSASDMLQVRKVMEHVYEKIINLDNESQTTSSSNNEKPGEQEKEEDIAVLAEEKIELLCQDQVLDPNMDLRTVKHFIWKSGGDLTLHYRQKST

SMILES	IC50 (MDA-MB-436 cells) [nM]	IC50 (USP1/UAF1) [nM]
[2H]C([2H])([2H])n1c(=O)n(Cc2ccc(-n3nc(C(C)(F)F)cc3C)cc2)c2c(F)c(-c3c(OC)ncnc3C3CC3)ncc21 [Example 17]	50 to 100	50 to 100
[2H]C([2H])([2H])n1c(=O)n(Cc2ccc(-n3nc(C(F)(F)F)cc3C)cc2)c2c(F)c(-c3c(OC)ncnc3C3CC3)ncc21 [Example 15]	50 to 100	< 50
[2H]C([2H])([2H])n1c(=O)n(Cc2ccc(-c3nc(C(F)(F)F)cn3C(C)C)cc2)c2c(F)c(-c3c(OC)ncnc3C3CC3)ncc21 [Example 16]	< 50	< 50
COc1ncnc(C2CC2)c1-c1ncc2c(c1F)n(Cc1ccc(-c3nc(C(F)(F)F)cn3C)cc1)c(=O)n2C [Example 3]	< 50	< 50
